Legend:
[1] = target: T1, human glucocorticoid receptor (GR) complex (Homo sapiens, UniProt P04150); experiment: Glucocorticoid receptor competitive binding assay (fluorescence polarization, TAMRA-labeled dexamethasone probe); conditions: compounds of Formula (IA)
T1 construct: made in house; host or cells: insect expression system (baculovirus lysate)
T1 sequence (P04150 1-777): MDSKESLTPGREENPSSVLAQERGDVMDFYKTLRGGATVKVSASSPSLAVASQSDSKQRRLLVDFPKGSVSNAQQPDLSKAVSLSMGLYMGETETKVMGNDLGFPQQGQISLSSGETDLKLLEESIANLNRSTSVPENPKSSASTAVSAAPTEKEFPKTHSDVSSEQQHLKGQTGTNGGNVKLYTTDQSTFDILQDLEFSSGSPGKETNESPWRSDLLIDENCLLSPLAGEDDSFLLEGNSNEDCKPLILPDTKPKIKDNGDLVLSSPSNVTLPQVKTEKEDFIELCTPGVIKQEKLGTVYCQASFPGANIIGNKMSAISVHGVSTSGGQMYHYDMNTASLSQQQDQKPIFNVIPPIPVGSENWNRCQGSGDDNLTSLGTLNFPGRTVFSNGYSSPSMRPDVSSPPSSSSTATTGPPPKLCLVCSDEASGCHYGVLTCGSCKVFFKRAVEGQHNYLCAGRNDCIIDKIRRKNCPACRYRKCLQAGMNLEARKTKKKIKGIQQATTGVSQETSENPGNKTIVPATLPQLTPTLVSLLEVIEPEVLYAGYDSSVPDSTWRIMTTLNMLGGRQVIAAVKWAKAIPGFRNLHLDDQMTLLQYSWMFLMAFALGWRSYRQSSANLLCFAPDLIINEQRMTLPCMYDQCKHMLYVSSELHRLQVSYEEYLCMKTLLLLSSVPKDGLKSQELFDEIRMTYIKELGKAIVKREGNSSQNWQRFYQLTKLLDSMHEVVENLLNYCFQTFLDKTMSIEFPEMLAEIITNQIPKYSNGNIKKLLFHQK
How it was run: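 Fluorescence-polarization competition against 15 nM TAMRA-dexamethasone (stock added to the mix) for human GR complex from baculovirus lysate diluted 1:170. Buffer: 10 mM TES, 50 mM KCl, 20 mM Na2MoO4, 1.5 mM EDTA, 0.04% CHAPS, 10% glycerol, 1 mM DTT, pH 7.4. IC50 from 4-parameter logistic fit.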

[2] = test system: glucocorticoid receptor function; experiment: one or more of the above assays (GR binding and glucocorticoid receptor cell assays: aromatase, IL-6, TAT, MMTV-Luc, IL-8, ICAM-Luc); assay type: cell-based; conditions: assay not specified per compound

Row | Compound | activity in the GR binding assay [1] | activity as agonists of the glucocorticoid receptor function in one or more of the above assays [2]
1 | CCC(C)(CC(O)(Cc1ccnc2ccccc12)C(F)(F)F)c1ccccc1 (stereo not drawn) [1,1,1-Trifluoro-4-methyl-4-phenyl-2-quinolin-4-ylmethylhexan-2-ol] | potent activity | potent agonists
2 | Cc1cc(C#N)cc2[nH]c(CC(O)(CC(C)(C)c3ccc(F)cc3O)C(F)(F)F)cc12 (stereo not drawn) [2-[4-(4-Fluoro-2-hydroxyphenyl)-2-hydroxy-4-methyl-2-trifluoromethylpentyl]-4-methyl-1H-indole-6-carbonitrile] | potent activity | potent agonists
3 | Cc1ccc(O)c(C(C)(C)CC(O)(Cc2cc3c(C)cc(C#N)cc3[nH]2)C(F)(F)F)c1 (stereo not drawn) [2-[2-Hydroxy-4-(2-hydroxy-5-methylphenyl)-4-methyl-2-trifluoromethylpentyl]-4-methyl-1H-indole-6-carbonitrile] | potent activity | potent agonists
4 | CC(C)(CC(O)(Cc1cc(Cl)nc2ccc(Cl)cc12)C(F)(F)F)c1cc(F)ccc1O (stereo not drawn) [2-[3-(2,6-Dichloroquinolin-4-ylmethyl)-4,4,4-trifluoro-3-hydroxy-1,1-dimethylbutyl]-4-fluorophenol] | potent activity | potent agonists
5 | COc1ccc(F)cc1C(C)(C)CC(O)(Cc1cc2cc(C(=O)N3CCCC3)ccc2[nH]1)C(F)(F)F (stereo not drawn) [{2-[4-(5-Fluoro-2-methoxyphenyl)-2-hydroxy-4-methyl-2-trifluoromethylpentyl]-1H-indol-5-yl}pyrrolidin-1-ylmethanone] | potent activity | potent agonists
6 | COc1ccc(C(C)C)cc1C(C)(C)CC(O)(Cc1[nH]c2ccccc2c1C#N)C(F)(F)F (stereo not drawn) [2-[2-Hydroxy-4-(5-isopropyl-2-methoxyphenyl)-4-methyl-2-trifluoromethylpentyl]-1H-indole-3-carbonitrile] | potent activity | potent agonists
7 | Cc1cc(C#N)cc2[nH]c(CC(O)(CC(C)(C)c3cccc4c3OCC4)C(F)(F)F)cc12 (stereo not drawn) [2-[4-(2,3-Dihydrobenzofuran-7-yl)-2-hydroxy-4-methyl-2-trifluoromethylpentyl]-4-methyl-1H-indole-6-carbonitrile] | potent activity | potent agonists
8 | CC(C)(CC(O)(Cc1cc(Cl)nc(Cl)c1C#N)C(F)(F)F)c1cc(F)ccc1O (stereo not drawn) [2,6-Dichloro-4-[4-(5-fluoro-2-hydroxyphenyl)-2-hydroxy-4-methyl-2-trifluoromethylpentyl]nicotinonitrile] | potent activity | potent agonists
9 | COc1ccc(F)cc1C(C)(C)CC(O)(Cc1cc2cc(C(=O)N3CCOCC3)ccc2[nH]1)C(F)(F)F (stereo not drawn) [{2-[4-(5-Fluoro-2-methoxyphenyl)-2-hydroxy-4-methyl-2-trifluoromethylpentyl]-1H-indol-5-yl}morpholin-4-ylmethanone] | potent activity | potent agonists
10 | CC(C)(CC(O)(Cc1ccnc2ccccc12)C(F)(F)F)c1cc(C#N)cc2c1OCC2 (stereo not drawn) [7-(4,4,4-Trifluoro-3-hydroxy-1,1-dimethyl-3-quinolin-4-ylmethylbutyl)-2,3-dihydrobenzofuran-5-carbonitrile] | potent activity | potent agonists
11 | CC(C)(CC(O)(Cc1ccnc(F)c1)C(F)(F)F)c1cc(F)ccc1O (stereo not drawn) [4-Fluoro-2-[4,4,4-trifluoro-3-(2-fluoropyridin-4-ylmethyl)-3-hydroxy-1,1-dimethylbutyl]phenol] | potent activity | potent agonists
12 | Cc1cc(C)c(C(C)(C)CC(O)(Cc2[nH]c3ccccc3c2C#N)C(F)(F)F)cc1O (stereo not drawn) [2-[2-Hydroxy-4-(5-hydroxy-2,4-dimethylphenyl)-4-methyl-2-trifluoromethylpentyl]-1H-indole-3-carbonitrile] | potent activity | potent agonists
13 | CC(C)(CC(O)(Cc1cc2ccccc2[nH]1)C(F)(F)F)c1cccc(Cl)c1 (stereo not drawn) [4-(3-Chlorophenyl)-1,1,1-trifluoro-2-(1H-indol-2-ylmethyl)-4-methylpentan-2-ol] | potent activity | potent agonists
14 | CC(C)(CC(O)(Cc1cc2ccccc2[nH]1)C(F)(F)F)c1ccccc1F (stereo not drawn) [1,1,1-Trifluoro-4-(2-fluorophenyl)-2-(1H-indol-2-ylmethyl)-4-methylpentan-2-ol] | potent activity | potent agonists
15 | CC(C)(CC(O)(Cc1ccnc2ccccc12)C(F)(F)F)c1cccc(F)c1 (stereo not drawn) [1,1,1-Trifluoro-4-(3-fluorophenyl)-4-methyl-2-quinolin-4-ylmethylpentan-2-ol] | potent activity | potent agonists
16 | Cc1ccc(F)cc1C(C)(C)CC(O)(Cc1cc2nc(C#N)ccc2[nH]1)C(F)(F)F (stereo not drawn) [2-[4-(5-Fluoro-2-methylphenyl)-2-hydroxy-4-methyl-2-trifluoromethylpentyl]-1H-pyrrolo[3,2-b]pyridine-5-carbonitrile] | potent activity | potent agonists
17 | Cc1ccc(F)cc1C(C)(C)CC(O)(Cc1cc2cc(N(C)C)ncc2[nH]1)C(F)(F)F (stereo not drawn) [2-(5-Dimethylamino-1H-pyrrolo[2,3-c]pyridin-2-ylmethyl)-1,1,1-trifluoro-4-(5-fluoro-2-methylphenyl)-4-methylpentan-2-ol] | potent activity | potent agonists
18 | Cc1ccc(C(C)(C)CC(O)(Cc2ccnc3ccccc23)C(F)(F)F)cc1F (stereo not drawn) [1,1,1-Trifluoro-4-(3-fluoro-4-methylphenyl)-4-methyl-2-quinolin-4-ylmethylpentan-2-ol] | potent activity | potent agonists
19 | Cc1ccc(F)cc1C(C)(C)CC(O)(Cc1cc2cnccc2[nH]1)C(F)(F)F (stereo not drawn) [1,1,1-Trifluoro-4-(5-fluoro-2-methylphenyl)-4-methyl-2-(1H-pyrrolo[3,2-c]pyridin-2-ylmethyl)pentan-2-ol] | potent activity | potent agonists
20 | CC(C)(CC(O)(Cc1ccnc2ccccc12)C(F)(F)F)c1cccc(-c2ccccc2)c1 (stereo not drawn) [4-Biphenyl-3-yl-1,1,1-trifluoro-4-methyl-2-quinolin-4-ylmethylpentan-2-ol] | potent activity | potent agonists
21 | COc1ccc(F)cc1C(C)(C)CC(O)(Cc1cc2c(C)nc(C)nc2[nH]1)C(F)(F)F (stereo not drawn) [2-(2,4-Dimethyl-7H-pyrrolo[2,3-d]pyrimidin-6-ylmethyl)-1,1,1-trifluoro-4-(5-fluoro-2-methoxyphenyl)-4-methylpentan-2-ol] | potent activity | potent agonists
22 | CC(C)(CC(O)(Cc1cc2cc(C(F)(F)F)ncc2[nH]1)C(F)(F)F)c1cc(Cl)cc2c1OCC2 (stereo not drawn) [4-(5-Chloro-2,3-dihydrobenzofuran-7-yl)-1,1,1-trifluoro-4-methyl-2-(5-trifluoromethyl-1H-pyrrolo[2,3-c]pyridin-2-ylmethyl)pentan-2-ol] | potent activity | potent agonists
23 | COc1cc2cc(CC(O)(CC(C)(C)c3cc(F)ccc3OC)C(F)(F)F)[nH]c2cn1 (stereo not drawn) [1,1,1-Trifluoro-4-(5-fluoro-2-methoxyphenyl)-2-(5-methoxy-1H-pyrrolo[2,3-c]pyridin-2-ylmethyl)-4-methylpentan-2-ol] | potent activity | potent agonists
24 | Cc1ccc(O)c(C(C)(C)CC(O)(Cc2cc3ccccc3[nH]2)C(F)(F)F)c1 (stereo not drawn) [4-Methyl-2-[4,4,4-trifluoro-3-hydroxy-3-(1H-indol-2-ylmethyl)-1,1-dimethylbutyl]phenol] | potent activity | potent agonists
